System: PMA-treated THP-1 cells
Experiment: Macrophage podosome formation assay
Format: cell-based, human
Conditions: FIG. 13
Procedure: Positive hits from the in vitro screening assays are tested for effects on macrophage podosome formation. Macrophages express Arp2/3 and WASP, the latter of which is required for podosome formation. A typical cell-based secondary assay of this type includes the human monocytic cell ine THP-1, which undergoes macrophage differentiation and podosome formation in response to exposure to the phorbol ester, phorbol-12-myristate-13-acetate (PMA) (50 nM). A nuclear stain and an actin stain are used to detect and quantify the number of podosomes/cell in the absence or presence of positive hits from the in vitro screening assays. An example of the use of this assay is provided in Example 14 and is illustrated in FIG. 13.
In this assay, positive hits from the in vitro screening assays are tested for effects on macrophage podosome formation. […] A nuclear stain and an actin stain are used to quantify the number of podosomes/cell in a culture of differentiated THP-1 cells in the absence or presence of positive hits from the in vitro screening assays. […]
Podosomes in the THP-1 cells were visualized using a nuclear stain and an actin stain as follows. […] The fraction of THP-1 cells positive for podosomes was quantified using Image Express software (Molecular Devices, Inc.). […]

For COC(=O)Nc1nc2ccc(C(=O)c3cccs3)cc2[nH]1 [nocodazole], the “podosome formation (fraction of THP-1 cells positive for podosomes), in words” value was “prevented podosome formation in PMA-treated THP-1 cells in a dose-dependent manner”.

— US20060003399A1, “High throughput actin polymerization assay” (Cytokinetics, Inc., priority 2004, published 2006)
